Values joined by “and” are separate entries in the source; they are usually repeats but may differ in a detail not shown here. Equal entries are not always repeated. Active and inactive are the calls of the source. The rule behind the calls is not given here. Peptide text beside a SMILES is read from it. * marks the point of attachment. Cbz = O=C(OCc1ccccc1)*

The test concerns in vivo angiogenesis, blood vessel count. Kind of test: angiogenesis inhibition in living animals, in vivo study, HTS (AID 732).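 Note: zebrafish embryos dosed at one day post fertilization; 0% = reference inhibitor and 100% = plate mean.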 To be noted: active compounds read low;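 tested at 30 µM in the well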.

As to `CCCN1CCC[C@@H](c2cccc(O)c2)C1`, the vessel count % control was 91.2% (inactive).
The same measure for `Nc1nc(Nc2ccccc2)nc2c1ncn2[C@@H]1O[C@H](CO)[C@H](O)C1O` (stereo not given in full): 94.3% (inactive); for `NC(CP(=O)(O)O)C(=O)O` (stereo not given): 103% (inactive); for `COc1ccc2[nH]cc(CCN(C)C)c2c1`: 83.1% (inactive).
For `Nc1ncn([C@@H]2O[C@H](CO)[C@@H](O)[C@H]2O)c(=O)n1`, the vessel count % control is 65.2% (inactive).
With `C[C@](N)(Cc1ccc(O)c(O)c1)C(=O)O` the figure was 97.4% (inactive).
The same measure for `Cn1c(=O)c2[nH]cnc2n(C)c1=O`: 105% (inactive); for `NC1CCN(O)C1=O` (stereo not given): 115% (inactive); for `COc1ccccc1N1CCNCC1`: 96.7% (inactive).
With `C[C@H](CS)C(=O)N1CCC[C@H]1C(=O)O` the figure was 100% (inactive).
For `CC(C)[C@H](NC(=O)OCc1ccccc1)C(=O)N[C@H](C=O)Cc1ccccc1` (Cbz-Val-Phe-aldehyde), the vessel count % control is 107% (inactive).
In the case of `NC(=Nc1ccccc1)NC(=O)c1nc(Cl)c(N)nc1N`, the vessel count % control was 104% (inactive).
For `O=[N+]([O-])c1ccc(CSc2ncnc3c2ncn3[C@@H]2O[C@H](CO)[C@H](O)C2O)cc1` (stereo not given in full), the vessel count % control was 80.2% (inactive).
For `NCCCP(=O)(O)O`, the vessel count % control is 91.6% (inactive).
As for `CCCN(CCC)[C@@H]1CCc2cccc(O)c2C1`, the vessel count % control was 94.1% (inactive).
As for `CO[C@H]1CC=C2CCN3CCC4=C(CC(=O)OC4)[C@]23C1`, the vessel count % control was 105% (inactive).
With `CN/C(=C\[N+](=O)[O-])NCCSCc1ccc(CN(C)C)o1` the figure was 112% (inactive); with `COc1ccc(-n2nc(C(F)(F)F)cc2-c2ccc(Cl)cc2)cc1`, 126% (inactive).
The same measure for `COc1cc2c(cc1C(F)(F)F)N(C(=O)Nc1cc(F)cc(-c3cccnc3)c1)CC2`: 95.3% (inactive).
The same measure for `COc1ccccc1N1CCN(CCCNc2c(C)c(=O)n(C)c(=O)n2C)CC1`: 70.6% (inactive); for `CC(CN(C)C)CN1c2ccccc2CCc2ccccc21` (stereo not given): 97.1% (inactive).
With `COC(=O)C1=CCCN(C)C1`, the vessel count % control is 66% (inactive).
Regarding `COc1ccc(C2CNC(=O)C2)cc1OC1CCCC1` (stereo not given), the vessel count % control is 96.6% (inactive).
`CCCCN1CCC(COC(=O)c2cc(Cl)c(N)c3c2OCCO3)CC1`: the vessel count % control was 105% (inactive).
The same measure for `Cn1cnc(CCN)c1`: 99.8% (inactive).
Regarding `NCCCCN`, the vessel count % control is 106% (inactive).
The same measure for `NCCNC(=O)c1ncsc1-c1cccc(F)c1`: 102% (inactive); for `NC(=O)OCC(COC(N)=O)c1ccccc1`: 62.7% (inactive); for `C[C@]12CC[C@H]3[C@@H](CCC4C[C@H](O)CC[C@@]43C)[C@@H]1CC[C@@H]2O` (stereo not given in full): 106% (inactive).
The same measure for `O=C(O)CC1CCCc2ccccc2C1O` (stereo not given): 137% (inactive); for `Oc1ccc(/C=C/c2cc(O)cc(O)c2)cc1`: 100% (inactive).
The same measure for `CCCCCC[C@@H]([C@@H](C)O)n1cnc2c(N)ncnc21`: 85.8% (inactive).
Turning to `CCCCCCCCCCCCC/C=C/C(O)C(N)CO` (stereo not given), the vessel count % control was 112% (inactive).
With `O=C(c1cc(O)c(O)c([N+](=O)[O-])c1)c1ccccc1F` the figure was 116% (inactive); with `COc1ccc2c(c1OC)C(=O)O[C@H]2[C@@H]1c2cc3c(cc2CCN1C)OCO3`, 116% (inactive).
For the compound `CCCN1CCC[C@@H](c2cccc(C#N)c2)C1`, the vessel count % control is 103% (inactive).
`CC(=O)[C@H]1CCC2C3CC=C4C[C@@H](OS(=O)(=O)O)CC[C@]4(C)C3CC[C@@]21C` (stereo not given in full): the vessel count % control is 85% (inactive).
The same measure for `CN(C)CCOC(=O)COc1ccc(Cl)cc1`: 102% (inactive); for `CC(C)C[C@H](N)CSSC[C@@H](N)CC(C)C`: 39.2% (inactive).
The same measure for `C[N+](C)(C)CCOC(=O)CBr`: 95.6% (inactive); for `CCCN(CCC)C1Cc2cc(OC)c(OC)cc2C1`: 72.2% (inactive).
As to `CCCCOC(=O)NS(=O)(=O)c1sc(CC(C)C)cc1-c1ccc(Cn2c(CC)nc3c(C)cc(C)nc32)cc1`, the vessel count % control is 89% (inactive).
With `S=C(S)N1CCCC1` the figure was 73.2% (inactive); with `CC(C)NCC(O)COc1ccc(CCOCC2CC2)cc1` (stereo not given), 94.3% (inactive).
With `O=C(/C=C/c1ccc(O)c(O)c1)OCCc1ccccc1` the figure was 0% (inactive); with `CCN(CC)CCNC(=O)c1cc(Cl)c(N)cc1OC`, 99.4% (inactive).
The same measure for `N.N.N.N.N.N.N.N.N.N.N.N.N.N.O.O.[Cl-].[Cl-].[Cl-].[Cl-].[Cl-].[Cl-].[Ru+4].[Ru+5].[Ru+5]`: 123% (inactive); for `CNCCCC12CCC(c3ccccc31)c1ccccc12`: 92.5% (inactive); for `Cc1ccc(C(=O)O[C@H](C(=O)O)[C@H](OC(=O)c2ccc(C)cc2)C(=O)O)cc1` (tested in a mixture with another compound): 109% (inactive).
With `O=[N+]([O-])c1cc(O)c(O)c([N+](=O)[O-])c1`, the vessel count % control is 89.3% (inactive).
Regarding `O=P(O)(O)C(Cl)(Cl)P(=O)(O)O`, the vessel count % control is 110% (inactive).
With `CC12CCC3C(CCC4=C(O)C(=O)CCC43C)C1CCC2=O` (stereo not given) the figure was 109% (inactive); with `O=C(O)CCC/C=C\C[C@@H]1[C@@H](/C=C/[C@H](O)C2Cc3ccccc3C2)[C@@H](F)C[C@@H]1O`, 121% (inactive); with `OCC1NCC(O)C(O)C1O` (stereo not given), 97.9% (inactive).
As to `Oc1[nH]c2c(Cl)cc(Cl)cc2c1C1=Nc2ccc(Br)cc2/C1=N\OCCBr`, the vessel count % control is 121% (inactive).
`NC(N)=N/N=C/c1c(Cl)cccc1Cl`: the vessel count % control was 112% (inactive).
With `CCNC(=O)[C@H]1O[C@@H](n2cnc3c(N)nc(NCCc4ccc(CCC(=O)O)cc4)nc32)C(O)[C@H]1O` (stereo not given in full) the figure was 93.7% (inactive).
With `CC1=NS(=O)(=O)c2cc(Cl)ccc2N1` the figure was 116% (inactive); with `CCCC(CCC)C(=O)O`, 89.7% (inactive); with `NCCS`, 106% (inactive).
With `CCN(CC)CCCC(C)Nc1c2ccc(Cl)cc2nc2ccc(OC)cc12` (stereo not given) the figure was 0% (inactive); with `CC(N)=NCCCC[C@@H](N)C(=O)O`, 86.6% (inactive).
Take `Cn1cc(C2=C(c3ccc(Cl)cc3Cl)C(=O)NC2=O)c2ccccc21`: the vessel count % control was 0% (inactive).
Turning to `C=CCN1CCC2(C)c3cc(O)ccc3CC1C2C` (stereo not given), the vessel count % control is 109% (inactive).
The same measure for `N#C/C(=C\c1ccc(O)c(O)c1)C(=O)NCCCNC(=O)/C(C#N)=C/c1ccc(O)c(O)c1`: 118% (inactive); for `CCCCCCCCCCCCCCCCCC(=O)NCC(COP(=O)([O-])OCC[N+](C)(C)C)OCC` (stereo not given): 101% (inactive); for `O=C1CCC(c2ccc(-n3ccnc3)cc2)=NN1`: 86% (inactive).
As for `O=C(O)c1cc(=O)c2ccccc2[nH]1`, the vessel count % control is 97.4% (inactive).
With `C#CCN(C)CCCOc1ccc(Cl)cc1Cl` the figure was 100% (inactive); with `O=S(=O)(c1cccc2c(Cl)cccc12)N1CCCNCC1`, 109% (inactive).
The same measure for `CN=c1nc(-c2ccccc2)n(-c2ccccc2)s1`: 125% (inactive); for `CCCN1CCO[C@@H]2c3cc(O)ccc3OC[C@H]21`: 69.9% (inactive) and 97.2% (inactive).
Turning to `C1COC(NC(C2CC2)C2CC2)=N1`, the vessel count % control is 100% (inactive).
The same measure for `CCn1cnc2c(Nc3cccc(Cl)c3)nc(N[C@@H]3CCCC[C@@H]3N)nc21`: 88.4% (inactive); for `Oc1cc(O)cc(/C=C/c2ccc(O)c(O)c2)c1`: 101% (inactive).
In the case of `O=c1cc(O)cc(/C=C/c2ccc(O)c(O)c2)o1`, the vessel count % control is 122% (inactive).
With `CNC(=O)OCC[N+](C)(C)C` the figure was 96.2% (inactive); with `Cc1c(C(=O)c2cccc3ccccc23)c2cccc3c2n1[C@H](CN1CCOCC1)CO3`, 0% (inactive).
For the compound `NC1CONC1=O` (stereo not given), the vessel count % control is 117% (inactive).
The same measure for `COc1ccc2c(c1)c(CC(=O)O)c(C)n2Cc1ccc(F)cc1`: 106% (inactive); for `CN1C2CCC1CC(OC(c1ccccc1)c1ccccc1N)C2` (stereo not given): 91.2% (inactive); for `N[C@@H](Cc1cnc[nH]1)C(=O)O`: 107% (inactive).
With `CC1CC2C3CCC4=CC(=O)C=C[C@]4(C)[C@@]3(F)[C@@H](O)C[C@]2(C)[C@@]1(O)C(=O)CO` (stereo not given in full) the figure was 129% (inactive).
In the case of `NNc1nncc2ccccc12`, the vessel count % control is 92.2% (inactive).
The same measure for `CC1(C)C(=O)N(CCN2CCC(C(=O)c3ccc(F)cc3)CC2)c2ccccc21`: 118% (inactive); for `C[C@@H]1O[C@H](C[N+](C)(C)C)C[C@H]1O`: 104% (inactive); for `COc1ccccc1N1CCN(CCN(C(=O)c2ccc(F)cc2)c2ccccn2)CC1`: 103% (inactive).
For the compound `Cc1cn([C@H]2C[C@@H](N=[N+]=[N-])[C@@H](CO)O2)c(=O)[nH]c1=O`, the vessel count % control was 91.6% (inactive).
With `C[C@H]1C2Cc3ccc(O)cc3C1(C)CCN2CC1CC1` (stereo not given in full) the figure was 70.9% (inactive); with `CC[C@H](NC(=O)c1c(C)c(-c2ccccc2)nc2ccccc12)c1ccccc1`, 126% (inactive).

The values are drawn from PubChem BioAssay AID732 (Emory University Molecular Libraries Screening Center, 2007).
